In assay [1] the test system is other proteins (antioxidant components). Nature of the assay: Surface plasmon resonance (SPR) assay, other antioxidant components. The assay is classed as binding. A general note: In SPR one partner is held on a chip, and binding of the other changes the refractive index at the surface.
Assay [2] deals with SELH, Nucleolin, Fibrillarin, POL1, NPM, p53. Nature of the assay: Nucleolar stress response, immunofluorescence and western blot. In kind it is cell-based. To be noted: LN229. How it is done: (§1) SELH is localized in the nucleolus, which is a sensor of oxidative stress. Yang et al., Nature communications 7: 13599 (2016); Novoselov et al., J. Biol. Chem. 282: 11960 (2007). […] JNK2 activation by oxidative stress inactivated RNA polymerase I (POL1) transcription factor TIF1A in the nucleoli to down-regulate rRNA synthesis. Mayer et al., Genes Dev. 19: 933 (2005). To investigate whether the ribosomal biogenesis was disrupted by ISP I, pre-rRNA transcription was evaluated using real-time RT-PCR analysis in LN229 cells. […] To examine the mechanisms by which ISP I disrupts POL1 transcription, the inventors initially evaluated JNK2 activity and the overall state of the transcription machinery in ISP I-treated LN229 cells.
Western blotting was performed to detect the protein expression level of SELH, NRF2 and γH2AX regulated by ISP I. The cells were lysed by RIPA buffer from ThermoFisher Scientific, and the concentration was measured using DC Protein Assay, a Bio-Rad product. Equal amounts of protein of each sample were loaded for gel electrophoresis and were transferred to nitrocellulose membrane, blocked and incubated overnight at 4° C. with primary antibodies. Then the membranes were washed with TBST (3 times, 10 min each). Exposure, imaging, and data analysis were done using a KwikQuant Imager system, a product of Kindle Biosciences (Greenwich, Conn. USA). The following antibodies were used: anti-phospho-histone H2A.X (Ser139), anti-NRF2 (Cell Signaling, Danvers, Mass. USA), anti-SELH (Abcam, Cambridge, Mass. USA), anti-GAPDH (Millipore, Temecula, Calif. USA).
For immunofluorescence assay, cells were seeded on a 35-mm confocal dish with glass bottom and were treated with ISP I. After 24 hours, cells were fixed with 4% paraformaldehyde and were labeled with primary antibodies against γH2AX overnight at 4° C. Then the cells were incubated with secondary antibody conjugated with Alexa Fluor-594 (Invitrogen), followed by staining with DAPI for nuclei. Images were obtained using Zeiss LSM 780 microscopy (Carl Zeiss, Oberkochen Germany).
(Immunoblotting shows a protein as a band on a membrane.)

In the next assay the test system is TIF1A-POL1 interaction. Nature of the assay: Co-immunoprecipitation of TIF1A and POL1. The note with it: LN229 cells; 10 μg/mL. The assay is classed as cell-based. The protocol: as §1
For co-immunoprecipitation analysis, LN229 wild-type cells, LN229 cells treated with 10 μg/mL of ISP I, and LN229 cells transfected with SELH siRNA for 24 hours were harvested, and total protein was prepared from cells using Dynabeads Co-Immunoprecipitation Kit (ThermoFisher) according to the manufacturer's protocol. Immunoblotting then was performed using anti-SELH antibody.

The target of assay [3] is T1, SELH (Homo sapiens, UniProt Q8IZQ5).
T1 sequence (Q8IZQ5 1-122): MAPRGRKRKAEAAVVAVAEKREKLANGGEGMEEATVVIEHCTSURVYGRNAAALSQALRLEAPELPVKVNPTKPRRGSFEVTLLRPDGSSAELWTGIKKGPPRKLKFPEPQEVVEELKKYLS
Nature of the assay: Drug affinity responsive target stability (DARTS) assay. The assay is classed as binding. On the set-up: endogenous in cells; host or cells: LN229. To be noted: LN229 lysate; ISP I 40 μg/mL. How it is done: To identify ISP I's molecular target, the inventors performed drug affinity responsive target stability (DARTS) assay in LN229 cells.
The inventors discovered that the binding of ISP I to its target proteins temporarily locks them into a stable conformational structure, which prevents their recognition by proteases. After evading protease degradation, the identity of ISP I's target proteins was determined using mass spectroscopy.
DARTS assay data were taken to identify the target of ISP I in vitro. For this assay, the invenots used the protocol published by Lomenick et al., Proc. Nat'l Acad. Sci. USA 106: 21984 (2009). Briefly, LN229 cells were lysed with M-PER (Pierce) supplemented with protease and phosphatase inhibitors. After centrifugation at 14,000 rpm for 15 min, lysates were diluted to the same final volume and protein concentration with M-PER and were dissolved in TNC buffer [50 mM Tris-HCl (pH 8.0), 50 mM NaCl, 10 mM CaCl2)]. All steps were performed on ice or at 4° C. to help prevent premature protein degradation. […] Peptides were analyzed by LC/MS/MS on a Thermo LTQ-Orbitrap mass spectrometer with an Eksigent LC pump. For quantitative comparison of protein and peptide abundances, MS spectra were analyzed by means of the differential workflow of Rosetta Elucidator (Rosetta Inpharmatics).

For assay [4], the target named is T1, SELH. Nature of the assay: Cellular thermal shift assay (CETSA) / thermo-stability assay. In kind it is binding. On the set-up: endogenous in cells; host or cells: LN229, 786-O. The note with it: vs DMSO. The source says:
Next, the inventors used a thermo-stability assay to confirm SELH was targeted by ISP I in LN229 and 786-O cell lines. The principle of the assay is based on altered protein thermal stabilization/destabilization due to ligand binding in living cells. […] (FIG. 5B and FIG. 6A). To verify further the specificity of ISP I's targeting of SELH, the inventors designed a surface plasmon resonance assay to assess the interaction of ISP I with SELH synthesized in bacteria.
CETSA experiments were performed to determine the ISP I-related ligand induced shifts. Intact and live cells in a 10-cm dish were harvested, washed and resuspended in PBS with protease inhibitor cocktail. Protein of the cells was extracted by freeze-thaw more than three times, using liquid nitrogen. The supernatant was centrifuged at 20, 000 g for 20 min at 4° C. Then the samples were aliquoted to several groups incubated with different concentrations of ISP I for 1 hour. After that, samples were aliquoted into PCR tubes and thereafter heated at gradient temperature ranging from 40° C. to 80° C. for 3 min. Then the samples were centrifuged again and resolved using 4-12% SDS-PAGE followed by western blot experiments.

“Also recorded” adds a separate entry of the source.

For `COC1C(O)CC(=O)OC(C)CC=CC=CC(OC2CCC(N(C)C)C(C)O2)C(C)CC(CC=O)C1OC1OC(C)C(OC2CC(C)(O)C(OC(=O)CC(C)C)C(C)O2)C(N(C)C)C1O` (centres unmarked) [ISP I, 4″-isolvalerylspiramycin I], in assay [1], the “binding to other proteins (SPR)” value is listed as “does not bind with the other proteins”. Also, the “NPM expression (western blot)” value in assay [2] was “decreased nucleolar protein, NPM and P53 expression in a dose dependent manner; also recorded: reduced NMP expression”. In assay [2] (8 h, 10 μg/mL), the “SELH expression in the nucleolus (immunofluorescence)” value is “loss and reduction of SELH expression in the nucleolus”; the “nucleolar labeling of Nucleolin, Fibrillarin, POL1, NPM (immunofluorescence)” value is “loss and dispersion of nucleolar proteins (Neucleolin, Fibrillarin, POL1, NPM)”. Moreover, the “TIF1A-POL1 interaction (co-immunoprecipitation)” value in the assay with TIF1A-POL1 interaction is recorded as “interaction was disrupted by ISP I treatment”. Further, the “protein protected from protease (target identification by mass spectroscopy)” value at SELH [3] was “SELH was the most abundant primary protein present”. Moreover, the “thermal stabilisation of SELH (western blot)” value at SELH [4] (786-O cells) is reported as “ISP I-protected SELH was observed along with a rise in temperature; also recorded: protective effect of ISP I on SELH was present over a range of increasing temperatures”. For the same molecule, on SELH [4] (LN229 cells), the “thermal stabilisation of SELH (western blot)” value is given as “ISP I-protected SELH was observed along with the rise of temperature; also recorded: protective effect of ISP I on SELH was present over a range of increasing temperatures”.

(Values after patent US11351185B2, “Use of isovalerylspiramycins as anti-cancer agents to inhibit metastasis” (priority 2020, dated 2022).)
